Results from patent US20240024273A1, “TOPICAL ADMINISTRATION OF 2-(DIETHYLAMINO)ETHYL 2-(4-ISOBUTYLPHENYL)PROPRIONATE FOR TREATMENT OF DISEASES” (TECHFIELDS PHARMA CO., LTD., priority 2020, published 2024).

Legend:
[1] = tested on: Sprague Dawley rats; assay: Respiratory safety pharmacology study; assay type: in vivo; conditions: single dermal dose 50, 250, 750 mg/kg
[2] = tested on: mini pigs; assay: 39-week GLP repeated dermal dose toxicity and toxicokinetics study with 4-week recovery; assay type: in vivo; conditions: 5, 12.5 and 25 mg/kg dermal, 39 weeks
[3] = tested on: LPS induced fever; assay: LPS induced fever model; assay type: in vivo, SD Rats; conditions: 30 and 90 mg/kg; 4 and 6 hour time points
[4] = tested on: dogs; assay: Cardiovascular telemetry study in the unrestrained conscious non-naïve dog; assay type: in vivo; conditions: dermal 10, 25 and 50 mg/kg; up to 48 hours
[5] = tested on: healthy male and female volunteers; assay: Phase 1 clinical study: skin irritation assessment (dermal response score 0-7); assay type: in vivo, human; conditions: all dose groups
Method: Skin irritation due to study drug application was measured by a dermal response score of 0-7 assigned for each study drug application site prior to and 30 min following each dose administration. A score of 6 or 7 was considered a severe reaction. Pre-dose assessments during the multiple dosing served as the 12 hour post-dose assessment of the prior dose.

[6] = pig, in vivo, topical or ocular, 9 mg/kg
[7] = In vitro half-life in plasma; assay type: in vitro ADME
[8] = tested on: Sprague Dawley rats; assay: Behavioral effects, functional observational battery; assay type: in vivo; conditions: single dermal dose 50, 250, 750 mg/kg

SMILES: CCN(CC)CCOC(=O)C(C)c1ccc(CC(C)C)cc1 (centres unmarked) [2-(diethylamino)ethyl 2-(4-isobutylphenyl)propionate]
- respiratory changes [1]: 250, and 750 mg/kg of ibuprofenamine were not associated with respiratory
- local or systemic adverse effects [2]: mini pigs with 4-week recovery was done and no test article-related local
- LPS induced fever [3]: LPS induced fever was attenuated by middle (30 mg/kg) and high
- qualitative ECG parameters [4]: 25, and 50 mg/kg of ibuprofenamine and vehicle in dogs. There were no effects
- maximum skin irritation score (0-7) [5]: ≤ 3
- cartilage AUClast [6]: 23910 ng·h/mL
- muscle AUClast [6]: 35890 ng·h/mL
- plasma AUClast [6]: 1516 ng·h/mL
- fraction metabolized to ibuprofen in any human tissue (except skin) [7]: > 99.9%
- half-life ([7]; in plasma, read-out: in vitro T1/2): ~4 min
- neurobehavioral changes (FOB test) [8]: 250, and 750 mg/kg of ibuprofenamine were not associated with any
